Publication PMC9391280, “A High-Throughput Fluorescent Turn-On Assay for Inhibitors of DHHC Family Proteins” (ACS Chemical Biology, 2022)
Read-outs that look alike come from different tables or passages of the source.

Assays:
[1] = target: T1, zDHHC2 (Homo sapiens, UniProt Q9UIJ5); assay: PTP fluorogenic assay, single concentration […]; type: biochemical
T1 sequence (Q9UIJ5 1-367): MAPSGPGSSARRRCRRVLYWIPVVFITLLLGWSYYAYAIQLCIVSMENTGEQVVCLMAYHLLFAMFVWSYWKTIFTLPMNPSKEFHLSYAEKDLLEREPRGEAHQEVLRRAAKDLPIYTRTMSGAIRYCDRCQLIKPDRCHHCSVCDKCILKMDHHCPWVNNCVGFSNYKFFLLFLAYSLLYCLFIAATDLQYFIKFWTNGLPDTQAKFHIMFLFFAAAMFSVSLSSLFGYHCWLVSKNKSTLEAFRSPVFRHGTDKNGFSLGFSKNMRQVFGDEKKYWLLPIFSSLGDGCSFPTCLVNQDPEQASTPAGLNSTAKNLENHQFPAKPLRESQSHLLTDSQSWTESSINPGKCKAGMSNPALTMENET

[2] = target: T2, zDHHC20 (Homo sapiens, UniProt Q5W0Z9); assay: PTP fluorogenic turn-on assay with purified zDHHC20; type: biochemical
T2 sequence (Q5W0Z9 1-365): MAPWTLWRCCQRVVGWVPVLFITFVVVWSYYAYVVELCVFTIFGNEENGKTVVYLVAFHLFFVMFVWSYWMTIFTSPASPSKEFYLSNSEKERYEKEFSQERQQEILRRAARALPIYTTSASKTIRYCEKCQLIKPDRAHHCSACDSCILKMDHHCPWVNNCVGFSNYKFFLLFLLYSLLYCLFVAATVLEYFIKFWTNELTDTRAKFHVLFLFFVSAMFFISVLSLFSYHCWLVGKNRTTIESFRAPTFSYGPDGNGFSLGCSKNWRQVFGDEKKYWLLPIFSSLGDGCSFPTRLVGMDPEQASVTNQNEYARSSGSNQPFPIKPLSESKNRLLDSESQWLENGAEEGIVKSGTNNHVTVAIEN

[3] = target: T3, zDHHC3 (Homo sapiens, UniProt Q9NYG2); assay: PTP fluorogenic assay, single concentration […]; type: biochemical
T3 sequence (Q9NYG2 1-299): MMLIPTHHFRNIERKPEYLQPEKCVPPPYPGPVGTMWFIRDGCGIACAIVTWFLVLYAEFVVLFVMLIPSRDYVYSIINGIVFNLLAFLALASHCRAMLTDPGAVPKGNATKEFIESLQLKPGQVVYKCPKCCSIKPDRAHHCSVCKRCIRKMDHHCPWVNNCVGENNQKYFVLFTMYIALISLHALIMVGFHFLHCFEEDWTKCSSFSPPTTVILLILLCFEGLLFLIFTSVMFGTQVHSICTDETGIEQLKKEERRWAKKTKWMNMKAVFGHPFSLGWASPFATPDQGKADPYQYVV

[4] = target: T1, zDHHC2; assay: fluorogenic probe uncaging by purified enzyme ([…] probe); type: biochemical
[5] = target: T3, zDHHC3; assay: as above; type: biochemical
[6] = substrate: CCCCCCCCCCCCCCCC(=O)SCCN(C)C(=O)Oc1ccc2c(c1)Oc1cc(N3CCN(C(=O)CCCC(=O)O)CC3)ccc1C21OC(=O)c2ccccc21; assay: purified protein; conditions: palmitoyl-CoA mimetic; turnover depends on the key catalytic cysteine of the DHHC motif

CCCCCCCCCCCCCCC(Br)C(=O)O (stereo not shown) [2BP, 2-Bromopalmitate] was tested, and the “PTP fluorogenic assay, single concentration 20 μM” value [1] was “both CMA and 2BP were able to inhibit zDHHC2, zDHHC3, and zDHHC20”, the IC50 [2] was 2.02 ± 0.29 µM and the “PTP fluorogenic assay, single concentration 20 μM” value [3] was “both CMA and 2BP were able to inhibit zDHHC2, zDHHC3, and zDHHC20”.

For C=CC(=O)N(CC#N)CCCCCCCCCCCCCC [CMA, cyanomyracrylamide], the IC50 ([2]; read-out: IC50) was 0.463 ± 0.07 µM.

For CCCCCCCCCCCCCCCC(=O)SCCN(C)C(=O)Oc1ccc2c(c1)Oc1cc(N3CCN(C(=O)CCN4CCOCC4)CC3)ccc1C21OC(=O)c2ccccc21 (stereo not shown) [PTP-3], the “fluorogenic probe uncaging by purified enzyme (4 μM probe)” value [4] was “PTP-3, the morpholino compound, was the best substrate for these two DHHCs” and the “fluorogenic probe uncaging by purified enzyme (4 μM probe)” value [5] was “PTP-3, the morpholino compound, was the best substrate for these two DHHCs”.

B1: zDHHC20 (Homo sapiens) (protein)
chain: MAPWTLWRCCQRVVGWVPVLFITFVVVWSYYAYVVELCVFTIFGNEENGKTVVYLVAFHLFFVMFVWSYWMTIFTSPASPSKEFYLSNSEKERYEKEFSQERQQEILRRAARALPIYTTSASKTIRYCEKCQLIKPDRAHHCSACDSCILKMDHHCPWVNNCVGFSNYKFFLLFLLYSLLYCLFVAATVLEYFIKFWTNELTDTRAKFHVLFLFFVSAMFFISVLSLFSYHCWLVGKNRTTIESFRAPTFSYGPDGNGFSLGCSKNWRQVFGDEKKYWLLPIFSSLGDGCSFPTRLVGMDPEQASVTNQNEYARSSGSNQPFPIKPLSESKNRLLDSESQWLENGAEEGIVKSGTNNHVTVAIEN
B1 was tested, and the Km [6] was 24.3 µM.
